The source of these data is the SangsterLogP compilation.

Data set [1] can be described thus: method code SF-HPLC, from DOI: 10.1002/ps.2780370106. The note with it: pH 0.0.
The nature of data set [2]: method code SF-CR+AS, from Korenman, I.; Lineva, S.; Tishchenko, M. (1979). The influence of substituents on the extraction of phenols. Russ. J. Phys. Chem., 53(11)1678-1679. The note with it: pH 2.5.
Data set [3] is described as follows: method code SF, from DOI: 10.1016/j.tca.2016.07.020. The note with it: pH 7.4.
Data set [4] can be described thus: method code SF-AS, from DOI: 10.1016/0022-1902(68)80266-0. The note with it: pH 4.0.
A short description of data set [5]: method code SF-AS, from DOI: 10.1093/ajhp/38.9.1308, PMID: 7282713. The note with it: pH 7.4.
Data set [6] in a line: method code SF-AS, from DOI: 10.1016/s0045-6535(98)00368-3.
A short description of data set [7]: method code SF, from DOI: 10.1080/09553009014551091, PMID: 1970998. The note with it: pH 7.4.
Data set [8] can be described thus: method code SF-AS, from DOI: 10.1016/s0006-3495(76)85671-8, PMID: 1247644. The note with it: pH 8.0.
The nature of data set [9]: method code SF, from PMID: 8265709. The note with it: pH 7.4.
Assay in data set [10]: not given
The source holds these as a separate data set.

Data set [11] can be described thus: method code SF, from DOI: 10.1016/j.ejps.2014.11.002, PMID: 25447745. The note with it: pH 7.4.
Data set [12] is described as follows: method code SF-AS, from DOI: 10.1016/0006-2952(65)90227-3, PMID: 14322976. The note with it: pH 6.8.
Data set [13] is described as follows: method code SF-AS, from DOI: 10.1016/s0022-3565(25)24763-2, PMID: 2019981. The note with it: pH 7.4.
Assay in data set [14]: not given
The source holds these as a separate data set.

Data set [15] can be described thus: method code SF-CR+AS, from Korenman, Y. (1974). Extraction of 2-halophenols from aqueous solutions. Zh. Prikl. Khim., 47(7)1663-1666.
For data set [16] the following is noted: pH 1.0.
Data set [17] in a line: method code SF-CR+AS, from Korenman, Y. (1973). Extraction of guaiacol from aqueous solutions. Zh. Prikl. Khim., 46(6)1391-1394. The note with it: pH 2.0.
Data set [18] is described as follows: method code SF-GLC, from Park, Y.; Park, S. (2000). Determination and prediction of octanol/water partition coefficients and air-water partition coefficients for environmental toxic chemicals. 11(7)773-779.
Assay in data set [19]: not given
The source holds these as a separate data set.

Assay in data set [20]: not given
The source holds these as a separate data set.

Data set [21] in a line: method code SF, from DOI: 10.1007/bf00253009, PMID: 7273265. The note with it: pH 7.4.
The nature of data set [22]: method code SF, from DOI: 10.1248/yakushi1947.93.11_1452, PMID: 4273378.
Assay in data set [23]: not given
The source holds these as a separate data set.

Data set [24] can be described thus: from Tehrany, E.A.; Desobry, S. (2005). Comparison between the different calculation methods of partition coefficient of aroma compounds with a difference chemical classes in octanol/water system. ….
A short description of data set [25]: method code SF, from DOI: 10.1016/0043-1354(79)90201-x.
Assay in data set [26]: not given
This is another data set of the same source.

Data set [27] can be described thus: method code SF-RC, from DOI: 10.1111/j.2042-7158.1987.tb03173.x, PMID: 2886623.
A short description of data set [28]: from Büchel, H.; Draber, W.; Trebst, A.; Pistorius, E. (1966). Inhibition of photosynthetic reactions in isolated chloroplasts by benzimidazole-type herbicides and their structure-activity relation, …. The note with it: pH 7.0.
Data set [29] in a line: method code SF-AS, from Korenman, I.; Lineva, S.; Gezikova, N. (1978). Extraction of naphthol-sulfonic acids from aqueous solution. Zh. Prikl. Khim., 51(4)869-871.
Data set [30] is described as follows: method code SF-GLC, from DOI: 10.1016/s0021-9673(00)92516-0.
Data set [31] can be described thus: method code SF-CR+AS, from Korenman, I.; Kotelyanskaya, B.; Nefedova, A. (1976). Extraction of mononitrophenols from aqueous solutions. Zh. Prikl. Khim., 49(5)1150-1152.
Data set [32] can be described thus: method code SF-ESR, from DOI: 10.1111/1523-1747.ep12319780, PMID: 2551971. The note with it: pH 7.0.
Data set [33] can be described thus: method code SF-AS, from DOI: 10.1016/0006-2952(74)90620-0, PMID: 4822742. The note with it: pH 7.4.
Data set [34] in a line: method code SF, from DOI: 10.1021/jm00307a001, PMID: 5637185.
Data set [35] in a line: method code SF, from DOI: 10.1016/0005-2744(69)90103-x, PMID: 4387594.
Data set [36] can be described thus: method code SF, from DOI: 10.1248/yakushi1947.99.3_235. The note with it: pH 11.0.
Data set [37] can be described thus: method code SF, from Kruglik, P.; Leschev, M.; Rakhman'ko, M.; Bubel, N.; Asratyan, V. (1991). Extraction of 1,2,4-triazole and its derivatives by organic solvents. 64(8)1721-1724.
Assay in data set [38]: not given
The source holds these as a separate data set.

Data set [39] in a line: method code SF-AS, from Halmekoski, J.; Hannikainen, H. (1964). Rm values of hydroxy-substituted benzoic acids and partition coefficients of the acids between water and aliphatic alcohols. Suomen Kemist. B, 37, 221-226.
The conditions of data set [40]: pH 5.6.
A short description of data set [41]: method code SF-GLC,RC, from DOI: 10.1016/0048-3575(73)90050-3.
Assay in data set [42]: not given
The source holds these as a separate data set.

Data set [43] in a line: method code SF-GLC, from DOI: 10.1002/jps.2600641120, PMID: 1195116.
The nature of data set [44]: method code SF-AS, from Korenman, I.; Nefedova, E.; Dyukova, I. (1977). Extraction of picramic acid. Int J Clin Pharmacol Ther Toxicol, 51(5)734-735. The note with it: pH 7.4.
Assay in data set [45]: not given
The source holds these as a separate data set.

In [1], `Cc1c(F)c(F)c(C(=O)O)c(F)c1F` yielded a logD of 3.15.
Regarding `Cc1cc(N=O)ccc1O`, the logD in data set [2] is 1.71.
In the case of `NC(=S)c1ccccn1`, the logD in [3] was 1.14.
On to `O=C(CC(=O)C(F)(F)F)c1cccs1`, for which the logD in data set [4] came out at 1.46.
In [5], `Cc1ncsc1CCCl` returned a logD of 2.12.
On to `COc1cc(OC)ncn1`, for which, in data set [6], the logP came out at 0.96.
Molecule `O=[N+]([O-])c1nccn1COC(CO)CO` displayed a logD in data set [7] of -1.03.
On to `Cc1nc2c(Cl)c(Cl)c(Cl)c(Cl)c2[nH]1`, for which the logD in [8] turned out to be 2.83.
`Cn1c(=O)c2[nH]cnc2n(C)c1=O` had a logD in data set [9] of -0.18.
Consider `O=C(O)c1ccccc1F`, for which the logP was found to be 1.63.
Regarding `CCC1C(=O)NC(=O)N(C)C1=O` (stereo unspecified), the logP in data set [10] turned out to be 0.15.
The molecule `O=[N+]([O-])O[C@H]1CO[C@H]2[C@@H]1OC[C@H]2O[N+](=O)[O-]` returned a logD in data set [11] of 1.2.
Consider `O=c1ccccc(O)c1`, for which the logD in data set [12] came to 0.81.
As to `CCn1cccc(O)c1=O`, the logD in [13] amounted to 0.08.
In the case of `CSc1ncnc2[nH]cnc12`, the logP in [14] was 0.57.
`Oc1ccccc1I` gave a logP in data set [15] of 2.64.
In data set [16], `O=C(O)Cc1c(Cl)ccc(Cl)c1Cl` displayed a logD of 3.2.
Regarding `COc1ccccc1O`, the logD in data set [17] turned out to be 1.35.
Consider `CC(=O)OCCC(C)C`, for which, in [18], the logP was 2.55.
`CC(C)(C)OCCO` registered a logP in data set [19] of 0.39.
The molecule `O=C1NC(=O)c2ccccc21` came in with a logP in [20] of 1.04.
On to `O=C(Cn1ccnc1[N+](=O)[O-])N(CO)CO`, for which the logD in [21] was -1.59.
`CNC(=O)c1cccnc1`: the logP in [22] turned out to be 0.
`CCC(CC)C(=O)NC(N)=O` came in with a logP in data set [23] of 0.91.
As to `CCCCCC=O`, the logP in [24] is 1.85.
Turning to `NC(=O)COCc1ccco1`, the logP in data set [25] is -0.11.
On to `Cc1cccc(O)c1`, for which, in data set [26], the logP came to 2.01.
With `OC[C@@H](O)[C@@H](O)[C@H](O)[C@H](O)CO` (racemic), in data set [27], the logP was -2.47.
As for `Clc1nc2c(Cl)c(Cl)c(Cl)c(Cl)c2[nH]1`, the logD in [28] was 4.53.
`CC1=C(C(N)=O)SCCO1` had a logP in data set [29] of -0.22.
Molecule `ClCc1ccc(Cl)cc1Cl` had a logP in data set [30] of 3.82.
In [31], `O=[N+]([O-])c1ccc(O)cc1` came in with a logP of 1.95.
In turn, `CC1(C)COC(C)(C)N1O` registered a logD in data set [32] of 0.48.
In data set [33], `O=S1(=O)N=CNc2ccccc21` displayed a logD of 0.18.
Take `C=CC(CC)OC(N)=O` (stereo unspecified): the logP in data set [34] is 1.09.
In [35], `Nc1cccc(Br)c1` came in with a logP of 2.1.
For `OCCC1CCCCN1` (stereo unspecified), in data set [36], the logD is 0.11.
With `CC(C)CCn1cnc([N+](=O)[O-])n1`, in [37], the logP amounted to 1.26.
Take `CO[C@@H]([C@H](O)[C@H](O)CO)[C@@H](O)C=O`: in data set [38], the logP was -3.
Molecule `O=C(O)c1cccc(O)c1O` returned a logP in data set [39] of 1.2.
The molecule `NC(=O)c1ccc([N+](=O)[O-])cc1` had a logD in data set [40] of 0.82.
Consider `ClCc1ccccc1`, for which the logP in data set [41] is 2.3.
As to `CCCCCCC`, the logP in [42] worked out at 4.48.
`C1CCc2nnnn2CC1`: in [43], the logP stood at 0.14.
Consider `CC(C)c1cnc([N+](=O)[O-])n1C`, for which the logD in data set [44] came out at 1.09.
In the case of `O=S(=O)(CS(=O)(=O)C(F)(F)F)c1ccc(Cl)c(Cl)c1`, the logP in data set [45] came out at 1.7.
